Data as given in ChEMBL document CHEMBL1201862, “PubChem BioAssay data set” (2004).
Active and inactive are the calls of the source.

Columns and labels:
Type in all cases: functional
[1] = target: T1, Protein RecA (Mycobacterium tuberculosis, UniProt P9WHJ3); assay: Fluorescence Cell-Free Homogeneous Dose Retest to Identify Inhibitors of RecA-Intein Splicing Activity. [Related pubchem assays (depositor defined):AID2097, AID2223, AID489010, AID492950]
T1 sequence (P9WHJ3 whole entry): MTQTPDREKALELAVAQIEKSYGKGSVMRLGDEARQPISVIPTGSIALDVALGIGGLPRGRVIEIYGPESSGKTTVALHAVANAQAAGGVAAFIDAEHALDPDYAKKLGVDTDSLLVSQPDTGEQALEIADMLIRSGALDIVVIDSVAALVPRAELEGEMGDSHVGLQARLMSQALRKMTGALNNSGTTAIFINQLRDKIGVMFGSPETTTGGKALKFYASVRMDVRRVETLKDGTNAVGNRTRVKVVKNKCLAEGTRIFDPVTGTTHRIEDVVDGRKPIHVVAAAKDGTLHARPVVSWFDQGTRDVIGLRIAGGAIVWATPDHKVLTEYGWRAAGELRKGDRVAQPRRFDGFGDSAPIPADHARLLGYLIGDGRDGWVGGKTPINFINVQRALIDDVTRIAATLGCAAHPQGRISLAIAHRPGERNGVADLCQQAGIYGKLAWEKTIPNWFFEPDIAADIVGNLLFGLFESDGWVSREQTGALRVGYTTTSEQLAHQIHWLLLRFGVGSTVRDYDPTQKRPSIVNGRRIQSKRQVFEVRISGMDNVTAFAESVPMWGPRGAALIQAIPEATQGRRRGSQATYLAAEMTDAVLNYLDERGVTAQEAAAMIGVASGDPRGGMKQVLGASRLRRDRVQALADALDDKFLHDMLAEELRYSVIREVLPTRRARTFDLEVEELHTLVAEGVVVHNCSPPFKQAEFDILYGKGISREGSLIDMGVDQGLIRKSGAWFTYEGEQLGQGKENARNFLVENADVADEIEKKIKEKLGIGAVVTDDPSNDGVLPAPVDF

[2] = target: Serine/threonine-protein kinase D2 (Homo sapiens, UniProt Q9BZL6);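 also: measured against PRKD2 as one member of a kinome-wide kinase profiling panel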
[3] = target: Tyrosine-protein kinase Lyn (Homo sapiens, UniProt P07948);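 also: lyn as one member of a kinase panel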
[4] = target: Serine/threonine-protein kinase N2 (Homo sapiens, UniProt Q16513)
Chain of Serine/threonine-protein kinase N2 (Q16513 whole entry): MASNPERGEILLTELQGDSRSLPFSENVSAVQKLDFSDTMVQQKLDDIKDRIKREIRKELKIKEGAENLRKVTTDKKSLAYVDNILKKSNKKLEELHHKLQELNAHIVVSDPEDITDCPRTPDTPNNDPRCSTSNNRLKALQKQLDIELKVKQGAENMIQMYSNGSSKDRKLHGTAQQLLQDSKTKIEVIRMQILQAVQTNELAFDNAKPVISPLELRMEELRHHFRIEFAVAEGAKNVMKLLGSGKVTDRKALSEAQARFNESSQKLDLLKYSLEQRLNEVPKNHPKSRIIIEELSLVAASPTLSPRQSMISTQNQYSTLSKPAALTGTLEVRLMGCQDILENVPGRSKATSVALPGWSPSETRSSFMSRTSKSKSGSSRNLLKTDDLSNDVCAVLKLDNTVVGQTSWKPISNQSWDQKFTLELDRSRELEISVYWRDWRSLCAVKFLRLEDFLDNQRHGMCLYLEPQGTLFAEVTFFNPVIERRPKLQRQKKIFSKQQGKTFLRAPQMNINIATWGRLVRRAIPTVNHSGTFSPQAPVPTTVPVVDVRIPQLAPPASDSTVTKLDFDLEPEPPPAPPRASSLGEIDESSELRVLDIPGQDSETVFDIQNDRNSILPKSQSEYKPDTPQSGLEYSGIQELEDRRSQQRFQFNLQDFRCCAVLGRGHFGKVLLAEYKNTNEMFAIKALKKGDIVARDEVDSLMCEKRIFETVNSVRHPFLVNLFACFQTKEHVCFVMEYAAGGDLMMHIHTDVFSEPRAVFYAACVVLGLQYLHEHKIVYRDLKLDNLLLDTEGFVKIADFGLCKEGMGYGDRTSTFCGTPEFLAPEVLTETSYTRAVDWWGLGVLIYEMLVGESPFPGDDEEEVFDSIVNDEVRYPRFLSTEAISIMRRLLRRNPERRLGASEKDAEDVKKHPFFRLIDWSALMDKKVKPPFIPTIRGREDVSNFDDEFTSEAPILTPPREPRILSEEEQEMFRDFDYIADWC

Chain of Serine/threonine-protein kinase D2 (Q9BZL6 whole entry): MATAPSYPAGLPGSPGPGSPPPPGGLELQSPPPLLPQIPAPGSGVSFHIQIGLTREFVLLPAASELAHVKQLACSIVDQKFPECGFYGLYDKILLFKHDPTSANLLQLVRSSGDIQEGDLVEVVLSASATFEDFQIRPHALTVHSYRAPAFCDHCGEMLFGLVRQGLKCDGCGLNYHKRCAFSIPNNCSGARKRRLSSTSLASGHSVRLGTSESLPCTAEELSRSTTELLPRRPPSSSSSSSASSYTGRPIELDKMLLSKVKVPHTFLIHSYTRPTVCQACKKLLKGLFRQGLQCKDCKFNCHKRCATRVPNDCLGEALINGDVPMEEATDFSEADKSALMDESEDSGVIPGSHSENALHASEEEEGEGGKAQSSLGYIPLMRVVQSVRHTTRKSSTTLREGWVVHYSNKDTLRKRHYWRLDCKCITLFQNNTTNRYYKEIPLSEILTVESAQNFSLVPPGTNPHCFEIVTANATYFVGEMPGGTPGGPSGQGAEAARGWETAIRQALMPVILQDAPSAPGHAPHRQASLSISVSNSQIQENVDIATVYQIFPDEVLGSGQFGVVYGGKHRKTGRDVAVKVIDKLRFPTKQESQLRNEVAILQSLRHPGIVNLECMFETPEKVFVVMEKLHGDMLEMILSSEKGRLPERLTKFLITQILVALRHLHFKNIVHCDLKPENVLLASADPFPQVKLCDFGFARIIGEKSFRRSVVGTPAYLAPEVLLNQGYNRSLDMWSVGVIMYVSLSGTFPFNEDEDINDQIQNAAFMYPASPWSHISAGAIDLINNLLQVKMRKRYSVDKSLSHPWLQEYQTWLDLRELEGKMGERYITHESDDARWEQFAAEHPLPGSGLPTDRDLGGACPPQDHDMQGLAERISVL
Chain of Tyrosine-protein kinase Lyn (P07948 whole entry): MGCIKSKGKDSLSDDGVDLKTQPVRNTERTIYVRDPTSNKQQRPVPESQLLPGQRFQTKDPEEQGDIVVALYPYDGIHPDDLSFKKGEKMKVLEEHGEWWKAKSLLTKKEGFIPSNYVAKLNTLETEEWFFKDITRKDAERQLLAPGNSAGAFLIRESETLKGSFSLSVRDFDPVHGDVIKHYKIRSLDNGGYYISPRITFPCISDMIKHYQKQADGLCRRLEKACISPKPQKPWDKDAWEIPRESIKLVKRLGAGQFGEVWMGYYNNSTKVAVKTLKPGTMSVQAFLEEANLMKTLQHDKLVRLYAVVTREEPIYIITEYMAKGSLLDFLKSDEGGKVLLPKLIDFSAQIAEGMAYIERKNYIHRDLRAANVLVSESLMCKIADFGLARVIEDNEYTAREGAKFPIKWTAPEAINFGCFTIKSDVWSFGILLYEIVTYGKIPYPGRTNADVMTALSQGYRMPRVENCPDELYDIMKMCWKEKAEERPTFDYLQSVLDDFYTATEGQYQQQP

COc1ccc(C(C[N+](=O)[O-])c2c(C)[nH]n(-c3ccccc3)c2=O)cc1 (centres undefined)
EC50 [1]: 3.3 µM (active)

Oc1c2ccccc2c2c3c(cccc13)N=N2 [SP-600125]
Ki [2]: 0.158 µM (active) | Ki [3]: 1 µM (active) | Ki [4]: > 7.94 µM (inactive)
